Experimental findings from patent US20100256040A1 (priority 2001, published 2010) are described below.

Data set [1] is described as follows: Cytotoxicity measurement by MTS staining in PBMC cultures. The data set is classed as cell-based. Conditions: human. How it is done:
At assay termination the assay plates were stained with the soluble tetrazolium-based dye MTS (CellTiter Reagent, Promega) to determine cell viability and quantify compound toxicity. MTS is metabolized by the mitochondria enzymes of metabolically active cells to yield a soluble formazan product, allowing the rapid quantitative analysis cell viability and compound cytotoxicity. […] At termination of the assay, 20 μl of MTS reagent was added per well. The wells were incubated overnight for the HIV cytoprotection assay at 37° C. The incubation intervals were chosen based on empirically determined times for optimal dye reduction in each cell type. Adhesive plate sealers were used in place of the lids, the sealed plate was inverted several times to mix the soluble formazan product and the plate was read spectrophotometrically at 490 nm with a Molecular Devices Vmax plate reader.

The next data set deals with HIV-1. Put plainly: microbe, parasite or virus in culture. The protocol:
Fresh human blood was obtained commercially from Interstate Blood Bank, Inc. (Memphis, Tenn.). The lymphotropic clinical isolate HIV-1ROJO was obtained from a pediatric patient attending the AIDS Clinic at the University of Alabama at Birmingham. The laboratory-adapted HIV-1IIIB strain was propagated and tittered in fresh human PBMCs; pre-titered aliquots of HIV-1ROJO and Hiv-1IIIB were removed from the freezer (−80° C.) and thawed rapidly to room temperature in a biological safety cabinet immediately before use. Phytohemagglutinin (PHA-P) was obtained from Sigma (St. Louis, Mo.) and recombinant IL-2 was obtained from Amgen (San Francisco, Calif.).
Fresh human PBMCs were isolated from screened donors, seronegative for HIV and HBV. Leukophoresed blood was diluted 1:1 with Dulbecco's phosphate buffered saline (PBS), layered over 14 mL of Ficoll-Hypaque density gradient in a 50 mL centrifuge tube and then centrifuged for 30 minutes at 600×g. Banded PBMCs were aspirated from the resulting interface and subsequently washed 2× with PBS by low speed centrifugation. After the final wash, cells were enumerated by trypan blue exclusion and re-suspended at 1×10^7 cells/mL in RPMI 1640 supplemented with 15% Fetal Bovine Serum (FBS), 2 mM L-glutamine, 4 μg/mL PHA-P. The cells were allowed to incubate for 48-72 hours at 37° C. After incubation, PBMCs were centrifuged and reset in RPMI 1640 with 15% FBS, 2 mM L-glutamine, 100 U/ml penicillin, 100 μg/mL streptomycin, 10 μg/mL gentamycin, and 20 U/mL recombinant human IL-2. PBMCs were maintained in this medium at a concentration of 1-2×10^6 cells/mL with biweekly medium changes until used in the assay protocol.
For the standard PBMC assay, PHA-P stimulated cells from at least two normal donors were pooled, diluted in fresh medium to a final concentration of 1×10^6 cells/mL, and plated in the interior wells of 96 well round bottom microplate at 50 μL/well (5×10^4 cells/well). Test drug dilutions were prepared at a 2× concentration in microtiter tubes and 100 μL of each concentration was placed in appropriate wells in a standard format. 50 μl, of a predetermined dilution of virus stock was placed in each test well (final MOI≈0.1). Wells with cells and virus alone were used for virus control. Separate plates were prepared identically without virus for drug cytotoxicity studies using an XTT assay system. The PBMC cultures were maintained for seven days following infection, at which time cell-free supernate samples were collected and assayed for reverse transcriptase activity as described below.
A microtiter based reverse transcriptase (RT) reaction was utilized. See Buckheit et al., AIDS Research and Human Retroviruses 7:295-302 (1991). Tritiated thymidine triphosphate (NEN) (TTP) was resuspended in distilled H2O at 5 Ci/ml. Poly rA and oligo dT were prepared as a stock solution which was kept at −20° C. The RT reaction buffer was prepared fresh on a daily basis and consists of 125 μl 1M EGTA, 125 μl dH2O, 110 μl 10% SDS, 50 μl 1M Tris (pH 7.4), 50 μl 1M DTT, and 40 μl 1M MgCL2. These three solutions were mixed together in a ratio of 2 parts TTP, 1 part poly rA:oligo dT, and 1 part reaction buffer. Ten microliters of this reactions mixture was placed at a round bottom microtiter plate and 15 μl of virus containing supernatant was added and mixed. The plate was incubated at 37° C. in a water bath with a solid support to prevent submersion of the plate and incubated for 60 minutes. Following reaction, the reaction volume was spotted onto pieces of DE81 paper, washed 5 times 5 minutes each in a 5% sodium phosphate buffer, 2 times 1 minute each in distilled water, 2 times for 1 minute each in 70% ethanol, and then dried. Opti-Fluor-O (Packard) was added to each sample and incorporated radioactivity was quantified utilizing a Wallac 1450 MicroBeta Plus liquid scintillation counter.

A further data set addresses T1, Tsg101 (Homo sapiens, UniProt Q99816).
T1 construct: expressed in transfected cells
Put plainly: Yeast two-hybrid filter lift assay for β-Gal activity (Tsg101 / p6gag interaction). Type of data set: binding. The arrangement: key to Interactions Between Tsg101 and p6gag (β-Gal activity): +: Positive β-Gal activity indicates that the p6gag wild type or mutant protein interacts with Tsg101. To be noted: for ability to bind Tsg101 protein / Tsg101-p6gag interaction (in words): yeast two-hybrid. The text has this:
Yeast two-hybrid assays were utilized to determine the effect of amino acid substitution mutations in the PTAP motif of HIV p6gag on the interaction between Tsg101 and p6gag. To prepare a yeast two-hybrid activation domain-Tsg101 construct, a DNA fragment encompassing the full-length coding sequence for Tsg101 according to GenBank Accession No. U82130 was obtained by PCR from a human fetal brain cDNA library and cloned into the EcoRI/Pst1 sites of the activation domain parent plasmid GADpN2 (LEU2, CEN4, ARS1, ADH1p-SV40NLS-GAL4 (768-881)-MCS (multiple cloning site)-PGK1t, AmpR, ColE1_ori).
To prepare the yeast two-hybrid DNA binding domain-HIV1 p6gag construct, a DNA fragment corresponding to the HIV1 p6 peptide derived from the HIV1.NL43 strain GAG protein was obtained by PCR from the NL43 containing plasmid R9Δapa and was cloned into the EcoRI/Sal1 sites of the binding domain parent plasmid pGBT.Q. The sequence of the amplified insert is shown in SEQ ID NO:3485. In addition, the amino acid sequence of the HIV-1NYU/BR5 GAG is provided in GenBank under Accession No. AF324493 and is listed in SEQ ID NO:3484.
The following amino acid substitution mutations were introduced by PCR into the HIV1 p6gag sequence in the yeast two-hybrid binding domain-HIV1 p6gag construct described above. The mutations were verified by DNA sequence analysis.
To test the effect of the mutations, yeast cells of the strain Y189 purchased from Clontech (ura3-52 his3*200 ade2-101 trp1-901 leu2-3,112 met gal4 gal80 URA3::GAL1p-lacZ) were co-transformed with the activation domain-Tsg101 construct and one of the binding domain-mutant p6gag constructs or the binding domain-wild type p6gag construct. Filter lift assays for β-Gal activity were conducted by lifting the transformed yeast colonies with filters, lysing the yeast cells by freezing and thawing, and contacting the lysed cells with X-Gal. […] All binding domain constructs were also tested for self-activation of β-Gal activity.

Another data set has as its target T2, Full length Tsg101 (Homo sapiens, UniProt Q99816).
T2 construct: expressed in transfected cells
T2 sequence (Q99816 1-390): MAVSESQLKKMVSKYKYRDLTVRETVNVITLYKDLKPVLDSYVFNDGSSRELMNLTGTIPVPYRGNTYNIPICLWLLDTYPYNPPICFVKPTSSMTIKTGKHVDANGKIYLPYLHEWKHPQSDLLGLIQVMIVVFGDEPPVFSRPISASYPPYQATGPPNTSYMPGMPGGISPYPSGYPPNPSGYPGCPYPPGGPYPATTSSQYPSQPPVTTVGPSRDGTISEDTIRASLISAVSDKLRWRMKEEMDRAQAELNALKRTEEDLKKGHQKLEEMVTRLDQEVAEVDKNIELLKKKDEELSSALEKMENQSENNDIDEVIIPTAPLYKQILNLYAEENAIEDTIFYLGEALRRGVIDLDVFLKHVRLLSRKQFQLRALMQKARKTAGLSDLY
The data set can be described thus: Yeast two-hybrid liquid culture β-galactosidase assay. Type of data set: binding. To be noted: p6 point mutants. How it is done:
The interactions between TSG101 and wild-type p6gag (WT) or the p6gag PTAP mutants were further quantitated by performing liquid culture β-galactosidase assays. Cultures were grown overnight in synthetic media (-Leu, -Trp, +glucose) in 96 well plates, normalized for optical density, and lysed by addition of 6× lysis/substrate solution in 6×Z-buffer (60 mM KCl, 6 mM MgSO4, 360 mM Na2HPO4, 240 mM NaH2PO4, 6 mg/ml CPRG, 0.12 U/ml lyticase, 0.075% NP-40). Cultures were incubated for 2 hr at 37° C., clarified by centrifugation, and the optical absorbance of each supernatant was measured (575 nm). Full length Tsg101 bound wild-type p6 in the two-hybrid liquid culture assay, resulting in high levels of β-galactosidase activity (>300-fold over background). […] Each of these point mutations also arrests HIV-1 budding at a late stage (Huang et al. 1995).

Setting [2] is: PBMC plates without virus, tetrazolium dye staining, read-out: TC50.
The mark [3] stands for this setting: fresh human PBMCs, seven days following infection, RT activity.

Like-named read-outs stand apart in the source and are kept apart here. Where a SMILES comes first, the peptide text is derived from it. Where no end group is shown, it is not given here. Some results are limits rather than exact numbers.

Broadly, the IC50 is the concentration that inhibits the measured activity by half.

Take `C[C@H](NC(=O)[C@@H](NC(=O)[C@@H]1CCCN1C(=O)[C@H](CCC(=O)O)NC(=O)[C@@H]1CCCN1C(=O)[C@@H](N)CCCNC(=N)N)[C@@H](C)O)C(=O)N1CCC[C@H]1C(N)=O` [MPI-PEP3, NH2-RPEPTAP-CO-NH2] (H-RPEPTAP-NH2): the CC50 at 7 days in data set [1] (setting [2]) was greater than 200 µM. In addition, in the data set with HIV-1 (fresh human PBMCs), the “Comments (anti-HIV activity)” value was “Inactive”. The same molecule had an IC50 in the data set on HIV-1 (setting [3]) greater than 200 µM.
For the molecule `CC(C)C[C@H](NC(=O)[C@H](C)NC(=O)[C@@H](NC(=O)[C@@H]1CCCN1C(=O)[C@H](CCC(=O)O)NC(=O)[C@@H]1CCCN1C(=O)[C@H](CCCNC(=N)N)NC(=O)[C@H](CCCNC(=N)N)NC(=O)[C@H](CCCNC(=N)N)NC(=O)[C@H](CCCNC(=N)N)NC(=O)[C@H](CCCNC(=N)N)NC(=O)[C@H](CCCNC(=N)N)NC(=O)[C@H](CCCNC(=N)N)NC(=O)[C@H](CCCNC(=N)N)NC(=O)[C@@H](N)CCCNC(=N)N)[C@@H](C)O)C(=O)N[C@@H](CCC(=O)O)C(=O)N[C@@H](CCC(=O)O)C(=O)O` [MPI-PEP2, NH2-(R)9-PEPTALEE-COOH] (H-RRRRRRRRRPEPTALEE-OH), in data set [1] (setting [2]), the CC50 at 7 days was greater than 200 µM. In addition, the “Comments (anti-HIV activity)” value in the data set with HIV-1 (fresh human PBMCs) is “Inactive”. For the same molecule, the IC50 in the data set with HIV-1 (setting [3]) was greater than 200 µM.
Regarding “p6(E6G) (LQSRPGPTAPPEESFRFGEETTTPSQKQEPIDKELYPLASLRSLFGSDPSSQ; not fully specified)”, the “Interactions Between Tsg101 and p6gag (β-Gal activity)” value with Tsg101 (yeast Y189 co-transformed with activation domain-Tsg101 and binding domain-p6gag construct, filter lift, X-Gal) is “+”. The “ability to bind Tsg101 protein / Tsg101-p6gag interaction (in words)” value with Tsg101 was “did not result in the elimination of the Tsg101-p6gag interaction”; in the data set with Tsg101 (listed as E6G) it was “capable of binding”.
In turn, `Cc1cn([C@H]2C[C@H](N=[N+]=[N-])[C@@H](CO)O2)c(=O)[nH]c1=O` [AZT, 3′-Azido-3′-deoxythymidine, reference compound] showed a CC50 at 7 days in data set [1] greater than 1 µM. Also, the IC50 in the data set on HIV-1 (Human immunodeficiency virus 1, PBMC, 168 h) amounted to 0.008 µM. In the data set with HIV-1 (fresh human PBMCs), the “Comments (anti-HIV activity)” value was “Control; Highly”.
As to “p6(A9R) (LQSRPEPTRPPEESFRFGEETTTPSQKQEPIDKELYPLASLRSLFGSDPSSQ; not fully specified)”, in the data set with Tsg101, the “ability to bind Tsg101 protein / Tsg101-p6gag interaction (in words)” value was “abolishes the p6 binding affinity”. Further, the “β-galactosidase activity (in words)” value with Full length Tsg101 is reported as “reduced β-galactosidase activity to background levels”.
For `C[C@H](NC(=O)[C@@H](NC(=O)[C@@H]1CCCN1C(=O)[C@H](CCC(=O)O)NC(=O)[C@@H]1CCCN1C(=O)[C@H](CCCNC(=N)N)NC(=O)[C@H](CCCNC(=N)N)NC(=O)[C@H](CCCNC(=N)N)NC(=O)[C@H](CCCNC(=N)N)NC(=O)[C@H](CCCNC(=N)N)NC(=O)[C@H](CCCNC(=N)N)NC(=O)[C@H](CCCNC(=N)N)NC(=O)[C@H](CCCNC(=N)N)NC(=O)[C@@H](N)CCCNC(=N)N)[C@@H](C)O)C(=O)N1CCC[C@H]1C(=O)N[C@@H](CCC(=O)O)C(=O)N[C@@H](CCC(=O)O)C(=O)O` [MPI-PEP1, NH2-(R)9-PEPTAPEE-COOH] (H-RRRRRRRRRPEPTAPEE-OH), in data set [1] (setting [2]), the CC50 at 7 days is greater than 200 µM. For the same molecule, the “Comments (anti-HIV activity)” value with HIV-1 (fresh human PBMCs) is given as “Active”. In the data set with HIV-1 (setting [3]), this molecule came in with an IC50 of 21.7 µM.
Regarding “p6(P7L) (LQSRPELTAPPEESFRFGEETTTPSQKQEPIDKELYPLASLRSLFGSDPSSQ; not fully specified)”, the “ability to bind Tsg101 protein / Tsg101-p6gag interaction (in words)” value with Tsg101 was “abolishes the p6 binding affinity”. Moreover, the “β-galactosidase activity (in words)” value with Full length Tsg101 is “reduced β-galactosidase activity to background levels”.
As for “p6(P10L) (LQSRPEPTALPEESFRFGEETTTPSQKQEPIDKELYPLASLRSLFGSDPSSQ; not fully specified)”, the “ability to bind Tsg101 protein / Tsg101-p6gag interaction (in words)” value with Tsg101 was “abolishes the p6 binding affinity”. For the same molecule, the “β-galactosidase activity (in words)” value with Full length Tsg101 is reported as “reduced β-galactosidase activity to background levels”.
